The values below come from PMC7541926 (Preventive Nutrition and Food Science, 2020).

Assay [1] addresses T1, Saccharomyces cerevisiae α-glucosidase (Saccharomyces cerevisiae, UniProt P53341). In words: Enzyme assay for α-glucosidase inhibitory activity.
In assay [2] the target is T1, Saccharomyces cerevisiae α-glucosidase. As to the kind of experiment: Enzyme kinetics of α-glucosidase inhibitory activity. To be noted: Lineweaver-Burk double reciprocal plot.

The IC50 is the midpoint of a concentration-inhibition curve. Read a high IC50 as weaker potency in that assay.

T1 sequence (P53341 whole entry): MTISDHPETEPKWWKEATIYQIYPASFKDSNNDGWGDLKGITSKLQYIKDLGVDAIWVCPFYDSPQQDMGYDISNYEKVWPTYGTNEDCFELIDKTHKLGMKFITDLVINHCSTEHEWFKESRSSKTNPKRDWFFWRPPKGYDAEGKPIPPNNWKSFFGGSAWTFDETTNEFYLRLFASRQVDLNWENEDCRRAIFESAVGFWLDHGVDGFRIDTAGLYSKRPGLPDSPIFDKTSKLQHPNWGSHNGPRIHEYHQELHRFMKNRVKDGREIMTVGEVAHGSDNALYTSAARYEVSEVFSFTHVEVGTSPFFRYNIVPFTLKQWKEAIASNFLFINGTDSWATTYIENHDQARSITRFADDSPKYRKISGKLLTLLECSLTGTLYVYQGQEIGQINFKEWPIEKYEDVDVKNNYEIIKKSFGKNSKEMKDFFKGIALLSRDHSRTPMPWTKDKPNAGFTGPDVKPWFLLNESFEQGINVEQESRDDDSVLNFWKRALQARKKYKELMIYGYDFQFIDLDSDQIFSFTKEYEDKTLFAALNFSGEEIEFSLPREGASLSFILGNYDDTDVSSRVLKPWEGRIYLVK

In the case of `Oc1cc(O)c2cc(O)c(-c3cc(O)c(O)c(O)c3)[o+]c2c1` [Delphinidin, delphinidin chloride], inhibition in assay [1] was half-maximal at 4.11 ± 0.49 µM (IC50). Besides, the Mode of inhibition result in assay [2] is on record as “Mixed type, close to non-competitive”.

Regarding `Oc1ccc(-c2[o+]c3cc(O)cc(O)c3cc2O)cc1` [Pelargonidin, pelargonidin chloride], the midpoint of inhibition in assay [1], the IC50, lay at 50.3 ± 4 µM. In assay [2], the Mode of inhibition result was “Mixed type, close to non-competitive”.

On to `C[C@H]1O[C@H](O[C@H]2[C@H](O)[C@@H](O)[C@@H](O[C@H]3[C@H](O)[C@@H](O)C(O)O[C@@H]3CO)O[C@@H]2CO)[C@H](O)[C@@H](O)[C@@H]1N[C@H]1C=C(CO)[C@@H](O)[C@H](O)[C@H]1O` (some centres unmarked) [Acarbose, acarbose, reference compound], for which the Mode of inhibition entry in assay [2] is listed as “Competitive”.

Take `Oc1cc(O)c2cc(O)c(-c3ccc(O)c(O)c3)[o+]c2c1` [Cyanidin, cyanidin chloride]: inhibition in assay [1] was half-maximal at 17 ± 1.35 µM (IC50). Further, the Mode of inhibition entry in assay [2] is “Mixed type, close to non-competitive”.

The compound `COc1cc(-c2[o+]c3cc(O)cc(O)c3cc2O)cc(OC)c1O` [Malvidin, malvidin chloride] came in with an IC50 in assay [1] of 54.7 ± 2.14 µM. Also, in assay [2], the Mode of inhibition result is reported as “Mixed type, close to non-competitive”.

In assay [1], `COc1cc(-c2[o+]c3cc(O)cc(O)c3cc2O)cc(O)c1O` [Petunidin, petunidin chloride] gave an IC50 of 30.8 ± 1.17 µM. In assay [2], the Mode of inhibition entry is on record as “Competitive”.
